According to patent US6462055B2, “Alpha-methylbenzyl-containing thiourea inhibitors of herpes viruses containing a phenylenediamine group” (Wyeth, priority 1998, dated 2002):
Converted amounts (≈) assume the structure as drawn.

Legend:
[1] = tested on: HCMV recombinant mutant virus (RV145); assay: microbe, parasite or virus in culture; assay type: cell-based, human cytomegalovirus; conditions: for IC50: Human betaherpesvirus 5, read-out: IC50 ug/ml HCMV, HCMV
Method in brief: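 Read-out is beta-glucuronidase activity in cell lysates 96 h after infection, measured colorimetrically or fluorometrically. Reporter virus RV145 expresses the enzyme under a viral promoter in human foreskin fibroblasts treated with inhibitor.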

HSV-1 = assay: HSV Antiviral (ELISA) Assay in Vero cells; assay type: cell-based, herpes simplex virus type 1; conditions: HSV-1, Vero cells; for IC50: Human alphaherpesvirus 1, read-out: IC50 (ug/ml) HSV
Method in brief: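 Viral replication was quantified by cell-fixed ELISA for HSV glycoprotein D, using a β-galactosidase reporter and fluorogenic umbelliferyl substrate, about 24 h after HSV-1 infection (MOI 0.006) of Vero cells. Compounds, at several concentrations, were added 30 min pre-infection. IC50 was derived from fluorescence relative to the compound-free signal.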

VZV strain Ellen = assay: VZV Antiviral (ELISA) Assay in human foreskin fibroblast cells; assay type: cell-based, varicella-zoster virus; conditions: for IC50: Human alphaherpesvirus 3, Fibroblast, read-out: IC50 (ug/ml) VZV
Method in brief: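 First, fibroblasts are infected at multiplicity below 0.1 and kept overnight. The harvested cell mixture then goes onto compound-containing wells for three days at 37° C. Finally, cells are fixed and viral gpII is measured by fluorogenic ELISA.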

Row | Compound | IC50 ug/ml HCMV [1] | IC50 (ug/ml) HSV (HSV-1) | IC50 (ug/ml) VZV (VZV strain Ellen) | % inhibition 10 ug/ml VZV (VZV strain Ellen) | IC50 [1] | IC50 (HSV-1) | IC50 (VZV strain Ellen)
1 | COc1cc(C)c(Cl)cc1NC(=S)Nc1ccc(NC(=O)c2ccccc2F)cc1Cl [Example 458] | >10 µg/mL | 0.06 µg/mL (≈ 0.125 µM) | >10 µg/mL | 25% |  |  | 
2 | Cc1ccc(NC(=S)Nc2ccc(NC(=O)c3ccccc3F)cc2Cl)cc1Cl [Example 459] | >10 µg/mL | 0.12 µg/mL (≈ 0.268 µM) | >10 µg/mL | 25% |  |  | 
3 | CSc1ccc(NC(=S)Nc2ccc(NC(=O)c3ccccc3F)cc2Cl)cc1Cl [Example 460] | 2 µg/mL (≈ 4.16 µM) | 0.09 µg/mL (≈ 0.187 µM) | >10 µg/mL | 50% |  |  | 
4 | N#Cc1cccc(NC(=S)Nc2ccc(NC(=O)c3ccccc3F)cc2)c1 [Example 461] | >10 µg/mL | >10 µg/mL | >10 µg/mL | 33% |  |  | 
5 | NNC(=O)c1cccc(NC(=S)Nc2ccc(NC(=O)c3ccccc3F)cc2)c1 [Example 463] | >10 µg/mL | >10 µg/mL | >10 µg/mL | 19% |  |  | 
6 | Nc1c(Cl)cccc1NC(=S)Nc1ccc(NC(=O)c2c(F)cccc2F)cc1 [Example 465] | >10 µg/mL | >10 µg/mL | >10 µg/mL | 31% |  |  | 
7 | O=C(Nc1ccc(NC(=S)Nc2cccc(O)c2)cc1)c1ccccc1F [Example 475] | >10 µg/mL | 5 µg/mL (≈ 13.1 µM) | >10 µg/mL | 28% |  |  | 
8 | CC(=O)Nc1cccc(NC(=S)Nc2ccc(NC(=O)c3ccccc3F)cc2)c1 [Example 477] | >10 µg/mL | >10 µg/mL | >10 µg/mL | 15% |  |  | 
9 | O=C(Nc1ccc(NC(=S)Nc2ccc3scnc3c2)cc1)c1ccccc1F [Example 484] | >10 µg/mL | 0.4 µg/mL (≈ 0.947 µM) | >10 µg/mL | 28% |  |  | 
10 | CN(C)c1ccc(Cl)cc1NC(=S)Nc1ccc(NC(=O)c2ccccc2F)cc1 [Example 490] | 2.5 µg/mL (≈ 5.64 µM) | 1 µg/mL (≈ 2.26 µM) | >10 µg/mL | 68% |  |  | 
11 | CC(N=[N+]=[N-])c1ccc(NC(=S)Nc2ccc(NC(=O)c3ccccc3F)cc2)cc1Cl (stereo not shown) [Example 492] | 2 µg/mL (≈ 4.26 µM) | >10 µg/mL | >10 µg/mL | 32% |  |  | 
12 | Nc1nccc(-c2ccc(NC(=S)Nc3ccc(NC(=O)c4ccccc4F)cc3)cc2Cl)n1 [Example 502] | 1.8 µg/mL (≈ 3.65 µM) | >10 µg/mL | >10 µg/mL | 13% |  |  | 
13 | CN(C)c1c(Cl)cccc1NC(=S)Nc1ccc(NC(=O)c2c(F)cccc2F)cc1 [Example 504] | 2 µg/mL (≈ 4.34 µM) | 6 µg/mL (≈ 13 µM) | 4.5 µg/mL (≈ 9.76 µM) | 99% |  |  | 
14 | O=C(Nc1ccc(NC(=S)NCc2cccc(Cl)c2)cc1)c1ccccc1F [Example 511] | >10 µg/mL | >10 µg/mL | >10 µg/mL | 10% |  |  | 
15 | O=C(Nc1ccc(NC(=S)Nc2cc(C(F)(F)F)cc(C(F)(F)F)c2)cc1)c1ccccc1F [Example 517] | 1.1 µg/mL (≈ 2.19 µM) | >10 µg/mL | >10 µg/mL | 5% |  |  | 
16 | Nc1c(Cl)cc(NC(=S)Nc2ccc(NC(=O)c3ccccc3F)cc2)cc1Cl [Example 518] | 4 µg/mL (≈ 8.9 µM) | 0.25 µg/mL (≈ 0.556 µM) | >10 µg/mL | 32% |  |  | 
17 | Nc1c(Br)cc(NC(=S)Nc2ccc(NC(=O)c3ccccc3F)cc2)cc1Br [Example 519] | 1.7 µg/mL (≈ 3.16 µM) | 0.4 µg/mL (≈ 0.743 µM) | >10 µg/mL | 18% |  |  | 
18 | CN(C)c1cc(Cl)cc(NC(=S)Nc2ccc(NC(=O)c3ccccc3F)cc2)c1 [Example 523] | 3.2 µg/mL (≈ 7.22 µM) | 0.6 µg/mL (≈ 1.35 µM) | 4 µg/mL (≈ 9.03 µM) | 75% |  |  | 
19 | O=C(Nc1ccc(NC(=S)Nc2ccc3[nH]nnc3c2)cc1)c1c(F)cccc1F [Example 527] | >10 µg/mL | >10 µg/mL | >10 µg/mL | 20% |  |  | 
20 | O=C(Nc1ccc(NC(=S)Nc2cc(Br)cc(C(F)(F)F)c2)cc1)c1ccccc1F [Example 531] | 5 µg/mL (≈ 9.76 µM) | >10 µg/mL | 6 µg/mL (≈ 11.7 µM) |  |  |  | 
21 | O=C(Nc1ccc(NC(=S)NCc2ccccc2)cc1)c1ccccc1F [Example 536] | >10 µg/mL | >10 µg/mL | >10 µg/mL |  |  |  | 

Row | Compound | IC50 ug/ml HCMV [1] | IC50 (ug/ml) HSV (HSV-1) | IC50 (ug/ml) VZV (VZV strain Ellen) | % inhibition 10 ug/ml VZV (VZV strain Ellen) | IC50 [1] | IC50 (HSV-1) | IC50 (VZV strain Ellen)
22 | O=C(Nc1ccc(NC(=S)NCc2ccc(Cl)c(Cl)c2)cc1)c1ccccc1F [Example 538] | >10 µg/mL | >10 µg/mL | 10 µg/mL (≈ 22.3 µM) |  |  |  | 
23 | O=C(Nc1ccc(NC(=S)NCc2ccc3c(c2)OCO3)cc1)c1ccccc1F [Example 540] | >0.5 µg/mL | >10 µg/mL | >10 µg/mL |  |  |  | 
24 | O=C(Nc1ccc(NC(=S)NCc2cc(C(F)(F)F)cc(C(F)(F)F)c2)cc1)c1ccccc1F [Example 543] | 0.3 µg/mL (≈ 0.582 µM) | >10 µg/mL | >10 µg/mL |  |  |  | 
25 | O=C(Nc1ccc(NC(=S)Nc2ccc(OC(F)(F)F)c(Br)c2)cc1)c1ccccc1F [Example 549] | >10 µg/mL | >10 µg/mL | >10 µg/mL |  |  |  | 
26 | O=C(Nc1ccc(NC(=S)NCCc2ccc(F)cc2)cc1)c1ccccc1F [Example 552] | >0.5 µg/mL | >10 µg/mL | >10 µg/mL |  |  |  | 
27 | O=C(Nc1ccc(NC(=S)NCCc2ccc(F)cc2)cc1)c1ccccc1F [Example 553] |  |  |  |  | > 0.5 µg/mL | > 10 µg/mL | 7 µg/mL (≈ 17 µM)
28 | O=C(Nc1ccc(NC(=S)NCCc2cccc(Cl)c2)cc1)c1ccccc1F [Example 563] | >0.5 µg/mL | >10 µg/mL | 9 µg/mL (≈ 21 µM) |  |  |  | 
29 | CC(NC(=S)Nc1ccc(NC(=O)c2ccccc2F)cc1)c1ccccc1 (stereo not shown) [Example 589] | 7 µg/mL (≈ 17.8 µM) | >10 µg/mL | 0.36 µg/mL (≈ 0.915 µM) |  |  |  | 
30 | CC(NC(=S)Nc1ccc(NC(=O)c2ccccc2F)cc1)c1ccc(F)cc1 (stereo not shown) [Example 591] |  |  |  |  | 7 µg/mL (≈ 17 µM) | > 10 µg/mL | 1.5 µg/mL (≈ 3.65 µM)
31 | CC(C)CN(C)c1cc(NC(=S)Nc2ccc(NC(=O)c3ccccc3F)cc2)cc(C(F)(F)F)c1 [Example 596] | 2 µg/mL (≈ 3.86 µM) | >10 µg/mL | >10 µg/mL |  |  |  | 
32 | CCCCN(C)c1cc(NC(=S)Nc2ccc(NC(=O)c3ccccc3F)cc2)cc(C(F)(F)F)c1 [Example 598] | >10 µg/mL | >10 µg/mL | >10 µg/mL |  |  |  | 
33 | O=C(Nc1ccc(NC(=S)NCCCc2ccccc2)cc1)c1ccccc1F [Example 628] | >10 µg/mL | >10 µg/mL | 10 µg/mL (≈ 24.5 µM) |  |  |  | 
34 | CN(C)c1cc(CNC(=S)Nc2ccc(NC(=O)c3ccccc3F)cc2)cc(C(F)(F)F)c1 [Example 636] | >10 µg/mL | >10 µg/mL | 5 µg/mL (≈ 10.2 µM) |  |  |  | 
35 | COc1cccc(C(=O)Nc2ccc(NC(=S)NC(C)c3ccc(F)cc3)cc2)c1 (stereo not shown) [Example 753] | >0.5 µg/mL | >10 µg/mL | >7.5 µg/mL |  |  |  | 
36 | COc1ccc(C(=O)Nc2ccc(NC(=S)NC(C)c3ccc(F)cc3)cc2)cc1 (stereo not shown) [Example 754] | >10 µg/mL | >10 µg/mL | 0.2 µg/mL (≈ 0.472 µM) |  |  |  | 
37 | CC(NC(=S)Nc1ccc(NC(=O)c2ccccc2Cl)cc1)c1ccc(F)cc1 (stereo not shown) [Example 755] | >10 µg/mL | >10 µg/mL | 7 µg/mL (≈ 16.4 µM) |  |  |  | 
38 | CC(NC(=S)Nc1ccc(NC(=O)c2ccc(Cl)cc2)cc1)c1ccc(F)cc1 (stereo not shown) [Example 756] | >10 µg/mL | >10 µg/mL | 0.3 µg/mL (≈ 0.701 µM) |  |  |  | 
39 | CC(=O)Oc1ccc(C(=O)Nc2ccc(NC(=S)NC(C)c3ccc(F)cc3)cc2)cc1 (stereo not shown) [Example 757] | >10 µg/mL | >10 µg/mL | 1.5 µg/mL (≈ 3.32 µM) |  |  |  | 
40 | CC(NC(=S)Nc1ccc(NC(=O)c2ccccc2)cc1)c1ccc(F)cc1 (stereo not shown) [Example 758] |  |  |  |  | > 10 µg/mL | > 10 µg/mL | > 10 µg/mL
41 | CC(NC(=S)Nc1ccc(NC(=O)c2ccc(O)cc2)cc1)c1ccc(F)cc1 (stereo not shown) [Example 760] |  |  |  |  | > 10 µg/mL | > 10 µg/mL | > 10 µg/mL
42 | CCCCC(NC(=S)Nc1ccc(NC(=O)c2ccccc2F)cc1)c1ccc(F)cc1 (stereo not shown) [Example 773] | 1.2 µg/mL (≈ 2.65 µM) | >10 µg/mL | >7.5 µg/mL |  |  |  | 
